Key:
Assay type in all cases: cell-based
[1] = tested on: Acinetobacter baumannii 9010; assay: First screening, agar dilution MIC
Procedure: (§1) Clinical bacterial isolates from human samples collected in Lille (France) and some collection strains were used. The first screening step on pathogenic bacteria was carried out with crude hydro-alcoholic extracts of different hop parts (Table 1). The second screening was performed using sub-extracts of cones on Gram-positive bacteria, including methicillin-sensitive Staphylococcus aureus (MSSA) and methicillin-resistant Staphylococcus aureus […] (Table 2). These tests were carried out on Petri dishes, Mueller-Hinton Agar (MHA) (Oxoid, UK) was mixed with the plant extract solution in MeOH at 5% (solvent control: 5% MeOH). Final extract concentrations in Petri dishes ranged from 1250 to 4.9 µg/mL. A multi-headed inoculator allowed spotting bacterial strains at 10^5 CFU/mL in cysteinated Ringer (CR) solution (Merck®, France). Minimal Inhibitory Concentrations (MICs) were visually determined after 24 h of incubation at 37 °C.

[2] = tested on: Klebsiella pneumoniae 11017; assay: First screening, agar dilution MIC
Procedure: as §1

[3] = tested on: Acinetobacter baumannii 9011; assay: First screening, agar dilution MIC
Procedure: as §1

Salmonella sp. 11033 = assay: First screening, agar dilution MIC
Procedure: as §1

[4] = tested on: Klebsiella pneumoniae 11016; assay: First screening, agar dilution MIC
Procedure: as §1

[5] = tested on: Staphylococcus aureus 8147; assay: First screening, agar dilution MIC
Procedure: as §1

Proteus mirabilis 11060 = assay: First screening, agar dilution MIC
Procedure: as §1

[6] = tested on: Staphylococcus aureus 8146; assay: First screening, agar dilution MIC
Procedure: as §1

[7] = tested on: Enterobacter cloacae 11050; assay: First screening, agar dilution MIC
Procedure: as §1

Corynebacterium T25-17 [8] = assay: First screening, agar dilution MIC
Procedure: as §1

[9] = tested on: Streptococcus agalactiae T25-7; assay: First screening, agar dilution MIC
Procedure: as §1

[10] = tested on: Serratia marcescens 11057; assay: First screening, agar dilution MIC
Procedure: as §1

Escherichia coli 8138 = assay: First screening, agar dilution MIC
Procedure: as §1

[11] = tested on: Staphylococcus epidermidis 5001; assay: First screening, agar dilution MIC
Procedure: as §1

[12] = tested on: Staphylococcus warneri T12A12; assay: First screening, agar dilution MIC
Procedure: as §1

[13] = tested on: Pseudomonas aeruginosa ATCC 27583; assay: First screening, agar dilution MIC
Procedure: as §1

[14] = tested on: Staphylococcus epidermidis 10282; assay: First screening, agar dilution MIC
Procedure: as §1

[15] = tested on: Citrobacter freundii 11042; assay: First screening, agar dilution MIC
Procedure: as §1

[16] = tested on: Pseudomonas aeruginosa 8131; assay: First screening, agar dilution MIC
Procedure: as §1

[17] = tested on: Enterococcus faecalis C159-6; assay: First screening, agar dilution MIC
Procedure: as §1

[18] = tested on: Mycobacterium smegmatis 5003; assay: First screening, agar dilution MIC
Procedure: as §1

[19] = tested on: Providencia stuartii 11038; assay: First screening, agar dilution MIC
Procedure: as §1

Enterococcus sp. 8153 = assay: First screening, agar dilution MIC
Procedure: as §1

[20] = tested on: Enterobacter cloacae 11053; assay: First screening, agar dilution MIC
Procedure: as §1

[21] = tested on: Serratia marcescens 11056; assay: First screening, agar dilution MIC
Procedure: as §1

[22] = tested on: Staphylococcus lugdunensis T26A3; assay: First screening, agar dilution MIC
Procedure: as §1

[23] = tested on: Streptococcus dysgalactiae T46C14; assay: First screening, agar dilution MIC
Procedure: as §1

[24] = tested on: Citrobacter freundii 11041; assay: First screening, agar dilution MIC
Procedure: as §1

[25] = tested on: Escherichia coli ATCC 25922; assay: First screening, agar dilution MIC
Procedure: as §1

Escherichia coli 8157 = assay: First screening, agar dilution MIC
Procedure: as §1

[26] = tested on: Enterobacter cloacae 11051; assay: First screening, agar dilution MIC
Procedure: as §1

[27] = tested on: Stenotrophomonas maltophilia; assay: First screening, agar dilution MIC
Procedure: as §1

[28] = tested on: Streptococcus agalactiae T53C2; assay: First screening, agar dilution MIC
Procedure: as §1

[29] = tested on: Enterococcus faecalis T26-B7; assay: Second screening, agar dilution MIC
Procedure: as §1

[30] = tested on: Streptococcus agalactiae T40A2; assay: Second screening, agar dilution MIC
Procedure: as §1

[31] = tested on: Staphylococcus aureus T25.9; assay: Second screening, agar dilution MIC
Procedure: as §1

[32] = tested on: Staphylococcus aureus 8147; assay: Second screening, agar dilution MIC; settings: Table 2
Procedure: as §1

[33] = tested on: Enterococcus faecalis T34-2; assay: Second screening, agar dilution MIC
Procedure: as §1

[34] = tested on: Staphylococcus aureus T25.3; assay: Second screening, agar dilution MIC
Procedure: as §1

[35] = tested on: Staphylococcus aureus T36B1; assay: Second screening, agar dilution MIC
Procedure: as §1

[36] = tested on: Streptococcus agalactiae T25.7; assay: Second screening, agar dilution MIC
Procedure: as §1

[37] = tested on: Enterococcus faecalis T37A4; assay: Second screening, agar dilution MIC
Procedure: as §1

[38] = tested on: Staphylococcus pettenkoferi T3.3; assay: Second screening, agar dilution MIC
Procedure: as §1

[39] = tested on: Staphylococcus saprophyticus 08237; assay: Second screening, agar dilution MIC
Procedure: as §1

[40] = tested on: Staphylococcus aureus T25.10; assay: Second screening, agar dilution MIC
Procedure: as §1

[41] = tested on: Streptococcus agalactiae 13225; assay: Second screening, agar dilution MIC
Procedure: as §1

Corynebacterium T25-17 [42] = assay: Second screening, agar dilution MIC; settings: Table 2
Procedure: as §1

[43] = tested on: Streptococcus agalactiae 13226; assay: Second screening, agar dilution MIC
Procedure: as §1

[44] = tested on: Staphylococcus aureus T1.1; assay: Second screening, agar dilution MIC
Procedure: as §1

[45] = tested on: Staphylococcus aureus CIP 224; assay: Second screening, agar dilution MIC
Procedure: as §1

[46] = tested on: Staphylococcus epidermidis 5001; assay: Second screening, agar dilution MIC; settings: Table 2
Procedure: as §1

[47] = tested on: Enterococcus faecalis T39-C11; assay: Second screening, agar dilution MIC
Procedure: as §1

[48] = tested on: Staphylococcus aureus T6.7; assay: Second screening, agar dilution MIC
Procedure: as §1

[49] = tested on: Staphylococcus aureus T26A4; assay: Second screening, agar dilution MIC
Procedure: as §1

[50] = tested on: Streptococcus agalactiae T38.2; assay: Second screening, agar dilution MIC
Procedure: as §1

[51] = tested on: Staphylococcus lugdunensis T26A3; assay: Second screening, agar dilution MIC; settings: Table 2
Procedure: as §1

[52] = tested on: Staphylococcus aureus T47A12; assay: Second screening, agar dilution MIC
Procedure: as §1

[53] = tested on: Staphylococcus aureus T28.1; assay: Second screening, agar dilution MIC
Procedure: as §1

CN[C@H](CC(C)C)C(=O)N[C@H]1C(=O)N[C@@H](CC(N)=O)C(=O)N[C@H]2C(=O)N[C@H]3C(=O)N[C@H](C(=O)N[C@H](C(=O)O)c4cc(O)cc(O)c4-c4cc3ccc4O)[C@H](O)c3ccc(c(Cl)c3)Oc3cc2cc(c3O[C@@H]2O[C@H](CO)[C@@H](O)[C@H](O)[C@H]2O[C@H]2C[C@](C)(N)[C@H](O)[C@H](C)O2)Oc2ccc(cc2Cl)[C@H]1O [VAN, Vancomycin]
Susceptibility to VAN [1]: R (R > 16) | Susceptibility to VAN [2]: R (R > 16) | Susceptibility to VAN [3]: R (R > 16) | Susceptibility to VAN (Salmonella sp. 11033): R (R > 16) | Susceptibility to VAN [4]: R (R > 16) | Susceptibility to VAN [5]: S (Vancomycin (VAN) S ≤ 4) | Susceptibility to VAN (Proteus mirabilis 11060): R (R > 16) | Susceptibility to VAN [6]: S (Vancomycin (VAN) S ≤ 4) | Susceptibility to VAN [7]: R (R > 16) | Susceptibility to VAN (Corynebacterium T25-17 [8]): S (Vancomycin (VAN) S ≤ 4) | Susceptibility to VAN [9]: S (Vancomycin (VAN) S ≤ 4) | Susceptibility to VAN [10]: R (R > 16) | Susceptibility to VAN (Escherichia coli 8138): R (R > 16) | Susceptibility to VAN [11]: S (Vancomycin (VAN) S ≤ 4) | Susceptibility to VAN [12]: R (R > 16) | Susceptibility to VAN [13]: R (R > 16) | Susceptibility to VAN [14]: S (Vancomycin (VAN) S ≤ 4) | Susceptibility to VAN [15]: R (R > 16) | Susceptibility to VAN [16]: R (R > 16) | Susceptibility to VAN [17]: S (Vancomycin (VAN) S ≤ 4) | Susceptibility to VAN [18]: S (Vancomycin (VAN) S ≤ 4) | Susceptibility to VAN [19]: R (R > 16) | Susceptibility to VAN (Enterococcus sp. 8153): S (Vancomycin (VAN) S ≤ 4) | Susceptibility to VAN [20]: R (R > 16) | Susceptibility to VAN [21]: R (R > 16) | Susceptibility to VAN [22]: S (Vancomycin (VAN) S ≤ 4) | Susceptibility to VAN [23]: S (Vancomycin (VAN) S ≤ 4) | Susceptibility to VAN [24]: R (R > 16) | Susceptibility to VAN [25]: R (R > 16) | Susceptibility to VAN (Escherichia coli 8157): R (R > 16) | Susceptibility to VAN [26]: R (R > 16) | Susceptibility to VAN [27]: R (R > 16) | Susceptibility to VAN [28]: S (Vancomycin (VAN) S ≤ 4) | Susceptibility to VAN [29]: S (Vancomycin (VAN) S ≤ 4) | Susceptibility to VAN [30]: S (Vancomycin (VAN) S ≤ 4) | Susceptibility to VAN [31]: S (Vancomycin (VAN) S ≤ 4) | Susceptibility to VAN [32]: S (Vancomycin (VAN) S ≤ 4) | Susceptibility to VAN [33]: S (Vancomycin (VAN) S ≤ 4) | Susceptibility to VAN [34]: S (Vancomycin (VAN) S ≤ 4) | Susceptibility to VAN [35]: S (Vancomycin (VAN) S ≤ 4) | Susceptibility to VAN [36]: S (Vancomycin (VAN) S ≤ 4) | Susceptibility to VAN [37]: S (Vancomycin (VAN) S ≤ 4) | Susceptibility to VAN [38]: S (Vancomycin (VAN) S ≤ 4) | Susceptibility to VAN [39]: S (Vancomycin (VAN) S ≤ 4) | Susceptibility to VAN [40]: S (Vancomycin (VAN) S ≤ 4) | Susceptibility to VAN [41]: S (Vancomycin (VAN) S ≤ 4) | Susceptibility to VAN (Corynebacterium T25-17 [42]): S (Vancomycin (VAN) S ≤ 4) | Susceptibility to VAN [43]: S (Vancomycin (VAN) S ≤ 4) | Susceptibility to VAN [44]: S (Vancomycin (VAN) S ≤ 4) | Susceptibility to VAN [45]: S (Vancomycin (VAN) S ≤ 4) | Susceptibility to VAN [46]: S (Vancomycin (VAN) S ≤ 4) | Susceptibility to VAN [47]: S (Vancomycin (VAN) S ≤ 4) | Susceptibility to VAN [48]: S (Vancomycin (VAN) S ≤ 4) | Susceptibility to VAN [49]: S (Vancomycin (VAN) S ≤ 4) | Susceptibility to VAN [50]: S (Vancomycin (VAN) S ≤ 4) | Susceptibility to VAN [51]: S (Vancomycin (VAN) S ≤ 4) | Susceptibility to VAN [52]: S (Vancomycin (VAN) S ≤ 4) | Susceptibility to VAN [53]: S (Vancomycin (VAN) S ≤ 4)

— publication PMC6472001, “Phenolic Compounds from Humulus lupulus as Natural Antimicrobial Products: New Weapons in the Fight against Methicillin Resistant Staphylococcus aureus, Leishmania mexicana and Trypanosoma brucei Strains” (Molecules, 2019)
